The record followed here is a melting point compilation (Tetko et al.; mined from patent text by program, amines drawn as free bases though some values may be those of a salt).

Compound `CCOC(=O)C1=C(C)Nc2ccnc(OC(C)C)c2C1c1ccccc1C(F)(F)F` (stereo not drawn) gave a melting point of 130 to 131 °C.

On to `CCOc1nc2cccc(C(=O)OCOC(=O)C(C)(C)C)c2n1Cc1ccc(-c2ccccc2-c2nnn[nH]2)cc1`, for which the melting point is 104 to 106 °C.

`O=C1NCCc2c(-c3ccccc3CCCO)[nH]c3cccc1c23` displayed a melting point of 234 °C.

As for `CCc1nnc2c(Cl)nc3cc(F)ccc3n12`, the melting point lay in the range of 203 to 205 °C.

Compound `Nc1c(C(=O)c2cccc(Cl)c2)[nH]c2cc(Cl)ccc12` displayed a melting point of 99 to 102 °C.

Take `CC(=O)Oc1cn(Cc2c(F)cccc2F)c2sc(-c3ccc([N+](=O)[O-])cc3)c(C)c2c1=O`: the melting point is 216 to 217 °C.

For the compound `CC(C)(O)c1ccc(N2CCN(c3ccncc3)CC2)cc1`, the melting point was in the range of 234 to 235 °C.

As to `O=C(O)CCC(CCNCCc1ccccc1)n1nc(Cc2ccc(F)cc2)c2ccccc2c1=O` (stereo not drawn), the melting point lay in the range of 190 to 191 °C.

As for `COc1ccc([C@H]2NC(=S)N[C@H]2c2ccc(OC)cc2)cc1`, the melting point lay in the range of 226 to 227 °C.

`O=C(NCCO)c1ccc(CCN2CCN(Cc3ccccc3Cl)CC2)cc1` displayed a melting point of 121 to 122 °C.

In turn, `Cc1cc(Br)c(S(N)(=O)=O)cc1C(=O)O` showed a melting point of 237 °C.

`CCC(Oc1ccc(Cl)c(C)c1)C(=O)NCc1ccccc1Cl` (stereo not drawn) returned a melting point of 107 to 109 °C.

Regarding `O=C(NCc1cccnc1)c1ccnc(N2CCN(CC3CC3)C2=O)c1`, the melting point was in the range of 122 to 123 °C.

For the compound `C=CCOC(=O)OCc1ccc(C#N)cc1C(=O)O`, the melting point was in the range of 81 to 83 °C.

`COCCN(CCC12CC3CC(CC(C3)C1)C2)C(=O)NCCCc1ccncc1` displayed a melting point of 102 to 104 °C.

As to `COc1ccc2[nH]c(CO)cc2c1C`, the melting point lay in the range of 133 to 135 °C.

Compound `COC(=O)c1ccc(OC)c(F)c1F` came in with a melting point of 66 to 68 °C.

The compound `CC(C)N1CC(C(C(N)=O)(c2ccccc2)c2ccccn2)C1` (stereo not drawn) returned a melting point of 140 to 141 °C.

`CCOC(=O)C(=C(c1ccc(F)cc1)c1ccc(F)cc1)c1nnn(CC)n1` showed a melting point of 113 to 114 °C.

As to `Cc1nc2cc(N)c(N)cc2n1C`, the melting point is 212 °C.

For `CCOC(=O)c1ccc2cc[nH]c2c1`, the melting point lay within 72 to 75 °C.

In the case of `CSC(=S)N1CCN(Cc2cc(OC(C)=O)c(OC(C)=O)c(OC(C)=O)c2)CC1`, the melting point was in the range of 141 to 143 °C.

As for `CCCCOCCOc1ccc(-c2ccc3c(c2)C=C(C(=O)O)CCN3CC2CCC2)cc1`, the melting point fell in the range of 110 to 112 °C.

`CCOc1nc2cccc(C(=O)O)c2n1Cc1ccc(-c2ccccc2-c2nnn[nH]2)cc1`: the melting point is 183 to 185 °C.

Turning to `CCCCn1c(=O)c(=O)[nH]c2c3ccccc3ccc21`, the melting point was 269 °C.

Regarding `Cc1cc(-n2ccnc2)c2cccc(OCc3c(Cl)ccc(S(=O)(=O)N4CCC[C@H]4C(=O)NCC4CCN(C(=O)c5cccnc5)CC4)c3Cl)c2n1`, the melting point was found to be 109 °C.

As to `Cc1noc(NS(=O)(=O)c2ccccc2-c2ccc(-c3ncco3)cc2COCC(C)C)c1C`, the melting point fell in the range of 86 to 98 °C.

In turn, `O=C(Nc1nccs1)C(CC1CCCC1)c1cccc(S(=O)(=O)C(F)(F)F)c1` (stereo not drawn) showed a melting point of 61 to 64 °C.

Regarding `CC(C)Cc1c[nH]c(-c2ccnc(NC(=O)c3ccccc3)c2)n1`, the melting point lay in the range of 103 to 105 °C.

The compound `COc1ccnc(N2CCN(C(=O)c3cccs3)CC2)n1` yielded a melting point of 143 to 145 °C.

Compound `CC(N)=CC(=O)C1CNC(C)S1(=O)=O` (stereo not drawn) had a melting point of 113 to 115 °C.

Consider `Nc1ccc(S(=O)(=O)NCCc2ccccc2)cc1`, for which the melting point came out at 114 °C.

The compound `NS(=O)(=O)c1ccc(S(=O)(=O)c2ccc(OC(=O)c3cccnc3)cc2)s1` yielded a melting point of 200 to 201 °C.

As for `CCOC(=O)c1ccc(I)nc1`, the melting point lay in the range of 48 to 49 °C.

Consider `COc1cc(OC)c2c(=O)[nH]c(-c3cc(C)cc(OCCO)c3)nc2c1`, for which the melting point was 107 to 109 °C.

As for `Cc1ncc(C=O)c(N)n1`, the melting point lay in the range of 191 to 192 °C.

The compound `OCc1ccc2cc(-c3nnc(CSCCOc4ccccc4)o3)ccc2c1` returned a melting point of 132 to 133 °C.

Compound `C[Si](C)(C)Sc1ncn([Si](C)(C)C)n1` had a melting point of 90 to 94 °C.

For `Cc1c(NC(=O)c2ccc(-c3ccc4c(c3)CCCCO4)cc2)ccc2cc(CN3CCCC3)cnc12`, the melting point lay within 162 to 163 °C.

In the case of `O=C(O)c1cc(OCc2ccccc2)c(C(=O)c2ccccc2)c([N+](=O)[O-])c1`, the melting point lay within 205 to 207 °C.

`CNC(=O)Oc1cccc(C2CCCN2Cc2ccncc2)c1` (stereo not drawn) came in with a melting point of 92 to 105 °C.

Regarding `COc1cccc(-c2cc(-c3ccoc3)on2)c1`, the melting point lay in the range of 36 to 37 °C.

With `O=C(O)CC1=CSCSC1`, the melting point turned out to be 97 °C.

`Cc1c(C(=O)O)ccc(S(C)(=O)=O)c1S(C)(=O)=O`: the melting point lay in the range of 192 to 198 °C.

For the compound `O=C(O)CCCCCOc1ccc(C2OC3C(CO)OC(n4ccc(=O)[nH]c4=O)C3O2)cc1` (stereo not drawn), the melting point was in the range of 158 to 160 °C.

In turn, `Nc1c(Cl)cnc(OCC(=O)O)c1Cl` registered a melting point of 200 to 201 °C.

`O=C(Nc1ccc(F)cn1)c1cc(-c2ccc(Cl)c(Cl)c2)nc2ccccc12` yielded a melting point of 204 to 205 °C.

Consider `O=C(NCCCC[C@H](Nc1nc2ccc(Cl)cc2cc1C(=O)O)C(=O)O)OCc1ccccc1`, for which the melting point is 152 to 154 °C.

Turning to `N#Cc1ncc(F)cc1O`, the melting point came out at 201 °C.

In turn, `O=[N+]([O-])c1ccc2nc(-c3ccccc3)sc2c1` registered a melting point of 179 to 181 °C.

In turn, `NC(=O)c1cc(Cl)c([N+](=O)[O-])cc1[N+](=O)[O-]` had a melting point of 201 to 203 °C.

Take `O=C(CS(=O)(=O)c1ccccc1)c1ccnc(Cl)c1`: the melting point is 124 to 126 °C.

In the case of `Cc1ccc2c(c1)OC(C(=O)O)Oc1ccccc1C2` (stereo not drawn), the melting point lay within 149 to 152 °C.

As to `COP(=O)(NC1C(=O)N2C(C(=O)OCc3ccc([N+](=O)[O-])cc3)=C(C=CN(C)C)CSC12)OC` (stereo not drawn), the melting point was in the range of 236 to 237 °C.

In turn, `NC(=O)C=Cc1cc2c(Oc3ccc(Br)cc3)cncc2s1` came in with a melting point of 195 to 196 °C.

The compound `Cc1c(-c2ccccc2)oc2c(CN(C)CCCl)cccc2c1=O` registered a melting point of 118 to 120 °C.

`O=C(NC1=Cc2cncn2CN=C1)c1ccccc1` had a melting point of 158 to 160 °C.

On to `O=c1n(CCCF)nnn1-c1cc([N+](=O)[O-])c(Cl)cc1F`, for which the melting point was in the range of 80 to 81 °C.

Take `O=C1CCCCN1[C@@H]1c2cc(C(F)(F)C(F)(F)C(F)(F)F)ccc2OC(CF)(CF)[C@H]1O` (relative stereo): the melting point is 156 to 157 °C.

For the compound `O=C(O)c1cccnc1C(=O)c1ccccc1`, the melting point lay in the range of 115 to 121 °C.

The compound `COc1ccc(-c2cc(-c3ccccc3)[nH]c2C(=O)NCc2ccc(C(=O)NO)cc2)cc1` gave a melting point of 187 to 188 °C.

`Cc1nnc(-c2ccc3occ(-c4cn[nH]c4)c3c2)o1` returned a melting point of 215 to 216 °C.

`COc1ccc(-c2ccc3c(C(=O)N(C)C)cccc3c2)cc1` registered a melting point of 113 to 116 °C.

`CCOC(=O)C1=C(C)NC(c2csc(C)n2)=NC1c1cccc(O)c1` (stereo not drawn) displayed a melting point of 175 to 178 °C.

The compound `O=C(O)Cn1nnnc1S` yielded a melting point of 110 to 111 °C.

The compound `CCC(=O)N[C@H]1CCc2c(ccc(OC)c2OC)C1` yielded a melting point of 149 to 151 °C.

`COc1nc(NC(=O)NS(=O)(=O)c2ccccc2C(=O)OCCCl)nc(OC)n1` returned a melting point of 171 to 174 °C.

For `Cn1cc(SC(C)(C)C)c(=O)c(-c2ccc(Cl)c(C(F)(F)F)c2)c1`, the melting point lay within 138 to 142 °C.

Compound `O=C1CCC(N2Cc3c(OCc4ccc(CNCCO)cc4)cccc3C2=O)C(=O)N1` (stereo not drawn) showed a melting point of 251 to 253 °C.

As to `O=C(O)CCCN(Cc1cccc(Cl)c1)Cc1cccc(Cl)c1`, the melting point lay within 170 to 173 °C.

Turning to `O=C(O)c1ccc(NC(=O)c2ccccc2-c2ccccc2)cc1`, the melting point lay within 246 to 249 °C.

Compound `CN(C)c1ccc(-c2cc(F)c(F)cc2-c2ccc(S(N)(=O)=O)cc2)cc1Cl` showed a melting point of 193 to 194 °C.

Compound `COC(=O)C1=C(N)C(CCCCC(=O)O)SC1` (stereo not drawn) gave a melting point of 98 to 102 °C.

For the compound `N#Cc1c(Cl)c([N+](=O)[O-])cc2[nH]c(=O)c(=O)[nH]c12`, the melting point lay in the range of 327 to 331 °C.

`COc1cc(C=O)ccc1OCc1coc(-c2ccccc2)n1` registered a melting point of 119 to 120 °C.

`O=C1COc2ccc(C3=Nc4ccccc4SC3c3ccccc3)cc2N1` (stereo not drawn) gave a melting point of 215 to 217 °C.

Turning to `Clc1cc(CC(Cl)Cl)cnc1Cl`, the melting point fell in the range of 89 to 90 °C.

`COC(=O)c1cccc2c1CC(c1csc(-c3ccncc3)n1)C(=O)N2` (stereo not drawn): the melting point lay within 230 to 231 °C.

As to `COc1ccc2oc(CC3CCCCC3)c(CC#N)c2c1`, the melting point came to 73 °C.

`O=C(O)c1cn(CCCO)c(=O)c2ccccc12` had a melting point of 205 °C.

On to `CC(C)(C)c1cc(I)c2c(c1)CNC1(CCSCC1)O2`, for which the melting point is 123 to 124 °C.

In turn, `Nc1ccnc2c(F)cccc12` gave a melting point of 184 to 186 °C.

`O=c1[nH]c2ccccc2n1CCN1CCN(C(c2ccccc2)c2ccccc2)CC1`: the melting point was determined as 218 °C.

`C=CCOc1ccc(C(=O)O)cc1` registered a melting point of 163 to 164 °C.

For the compound `O=C(OCCOc1ccccc1)c1sc(Cl)nc1C(F)(F)F`, the melting point lay in the range of 70 to 72 °C.

Take `Cc1cccc(NC(=O)NCCC(=O)N(CC(=O)OC(C)(C)C)c2ccccc2)c1`: the melting point stood at 142 °C.

As for `CC(C(=O)N(C)C)n1cc(Cl)c(-c2ccc(Cl)cc2)n1` (stereo not drawn), the melting point was in the range of 92 to 93.5 °C.

On to `COc1ccc(NC(=N)c2cccnc2)cc1`, for which the melting point fell in the range of 137 to 139 °C.

`C=C(c1ccc(N(C)C)cc1)c1ccc(N2CCCC2)cc1` returned a melting point of 149 to 150 °C.

`Nc1ccnc2c(NC(=O)c3c(Cl)cccc3Cl)cccc12` yielded a melting point of 265 to 275 °C.

For the compound `CCOC(=O)C(=O)Nc1c([N+](=O)[O-])sc2ccc(Cl)cc12`, the melting point was 126 to 128 °C.

The compound `CS(=O)(=O)c1ccc(C(=O)C2=C(O)C3CCC(C3)C2=O)c([N+](=O)[O-])c1` (stereo not drawn) registered a melting point of 170 °C.

Take `CCc1nc2c(N)nc3ccc(O)cc3c2n1C`: the melting point is greater than 240 °C.
